Results as given in US10314851B2, “Metakaryocidal treatments” (Massachusetts Institute of Technology, priority 2014, dated 2019).
Read-outs that look alike come from different tables or passages of the source.

Test system: HT-29 cells
From the text: Applicants next sought means to test nominated drugs (also referred to herein as candidate agents) using human cell cultures, particularly cell cultures derived from human tumors in which they discovered metakaryotic cells driving net growth and differentiation of such cultures by symmetric and asymmetric amitotic divisions.
The metakaryotic and pre-metakaryotic cells of cell lines derived from human tumors are capable of unlimited division when plated as single cells on plastic or glass surfaces. However, most cells in such cell lines are eukaryotic cells capable of limited cell growth which growth cannot give rise to immortal colonies or populations of cells. This quality permits the line to be used in quantitative assays of cell killing important for distinguishing among agents and regimens that kill metakaryotic cells in preference to eukaryotic cells and vice versa.
Single cells betray different fates. […] Applicants interpret these colonies and derived immortal populations to be the descendants of single metakaryotic or pre-metakaryotic stem cells.
Colonies of limited size between 1 and 2^11 cells are interpreted to be the products of growth of transition cell tiers three through eleven.
In this reproducible behavior the human tumor cell lines offered a means to test agents for metakaryocidal activity: metakaryocidal agents and regimens would reduce or eliminate the appearance of large colonies that could be propagated by serial trypsinized transfer. […] An example of this kind of assay is illustrated in FIGS. 1, 2 and 3.
In particular drugs evaluated were reported to overcome “multidrug resistance” giving special priority to drugs that suppressed “multidrug resistance” (MDR).
Shown in FIGS. 1-3 are images of quantitative trials of different regimens (initial concentration, duration of exposure) of metformin in clonal assays using HT-29 cells. […] FIG. 1 is a photograph illustrating the experimental design for testing metformin as a metakaryocide in vitro.
FIG. 2 depicts a table of the recorded colony counts on each of the flasks of the first image.
The Y-axis is the number of colonies on each test flask enumerated in FIG. 2 while the X-axis is the product of metformin concentration (micromolar) times the duration of the HT-29 cells to the drug (weeks).

CN(C)C(=N)N=C(N)N [metformin] was tested, and the “concentration above which surviving large colonies are not immortal and do not contain metakaryotic stem cells” value (HT-29, FIG. 1, five weeks) was greater than 100 µM, the “concentration x duration of exposure at which elimination of metakaryotic cell-containing immortal colonies is reached” value (HT-29, FIG. 3) was roughly 200 micromolar-weeks and the “concentration x duration of exposure below which killing of mortal colonies is not observed” value (HT-29, FIG. 3) was “about 2000 micromolar weeks”. For the same compound, the “survival fraction of the metformin-sensitive population (metakaryotic cells)” value (HT-29, at ~200 μM weeks) was 10^−2, the “total large colony numbers reduced to a level less than in untreated control flasks” value (HT-29, colonies five weeks after seeding, treated from day one for one, two or five weeks, concentration x duration treatments shown with green counts in FIG. 2) was “about 10%” and the “concentration at which surviving large colonies are not immortal and do not contain metakaryotic stem cells” value (HT-29, five weeks exposure) was 800 µM. The “concentration above which surviving large colonies are not immortal and do not contain metakaryotic stem cells” value (HT-29, one week exposure) was greater than 1600 µM and the “expected survival of metakaryotic cells” value (extrapolated from FIG. 3, treatment of ~400 μM weeks) was 10^−4.

In the case of COC(=O)[C@H]1[C@H]2C[C@@H]3c4[nH]c5cc(OC)ccc5c4CCN3C[C@H]2C[C@@H](OC(=O)c2cc(OC)c(OC)c(OC)c2)[C@@H]1OC [reserpine], the “metakaryocidal effect (survival vs. concentration x duration function)” value (tests of some sixteen drugs, compared with metformin) is reported as “no detectable effect as a metakaryocide”.
